In US11230526B1, “Cylcoalkenyl derivatives useful as agonists of the GPR120 and/or GPR40 receptors” (Janssen Pharmaceutica NV, priority 2018, dated 2022):

Key:
Human GPR120 short form = target: T1, Human GPR120 short form (Homo sapiens, UniProt Q5NUL3); assay: Human GPR120 calcium flux assay, Procedure Calcium B (4200 cells/well); assay type: cell-based
T1 construct: expressed in transfected cells
T1 sequence (Q5NUL3 1-361): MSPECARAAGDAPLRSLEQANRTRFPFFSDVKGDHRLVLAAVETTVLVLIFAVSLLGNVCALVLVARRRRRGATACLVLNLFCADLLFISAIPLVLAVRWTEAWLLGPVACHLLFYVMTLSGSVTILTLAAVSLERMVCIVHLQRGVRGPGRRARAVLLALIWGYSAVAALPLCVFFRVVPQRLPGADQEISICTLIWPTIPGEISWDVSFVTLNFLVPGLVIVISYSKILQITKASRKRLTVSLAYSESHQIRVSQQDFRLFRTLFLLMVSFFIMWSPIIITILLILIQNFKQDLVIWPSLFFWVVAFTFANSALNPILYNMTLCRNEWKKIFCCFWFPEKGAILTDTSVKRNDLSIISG
Protocol: Human GPR120 in Calcium Flux Assay
These cells are first loaded with the Ca^+2 sensitive dye, Fluo-4 NW. Upon stimulation, intracellular released Ca^+2 can bind to the dye and alter its fluorescence intensity. This increase in fluorescence signal, and thus the flux in intracellular [Ca^2+], is detected and quantitated by fluorescence imaging using a FLIPR reader. The effect of the agonist is measured as a function of concentration and used to calculate an EC50 based upon a response curve.
In this procedure 4200 cells/well were employed.
A Human GPR120 clone (Genbank accession number NM_001195755.1) was placed into the pcDNA3.1 mammalian expression vector carrying the neomycin resistance gene. A stable mammalian cell was generated by placing the above clone into a HEK293 background. […] Cells were split 2 times a week to keep the cells in the log-phase growth. […]
The assay was performed on a FLIPR plate reader using the following parameters. Baseline was read for 10 seconds at 1 sec intervals. The program was set to transfer 10 μL of ligand from compound plate to cell plate after baseline reading. Aspiration was executed at: 10 μL/sec speed, 4.6 μL height, Dispensing was executed at: 30 μL/sec speed, 45 μL height. After compound addition, each well was read for 300 sec, with measurements collected at 1 sec intervals.
The kinetic data from the FLIPR was based upon a 5 minute window for data collection. The fluorescence of each sample well was used for individual calculations of a normalized RFU value, which was defined as maximum response minus the minimum response. The normalized fluorescence reading (RFU) was calculated as follows: RFU=Fmax−Fmin
The Fitting Equation was: Y=Bottom+(Top-Bottom)/(1+10^((Log EC50−X)*HillSlope)), where X is the log of the concentration and Y is the response.

human GPR40 = target: T2, human GPR40 (Homo sapiens, UniProt O14842); assay: GPR40 calcium flux assay, human GPR40; assay type: cell-based; conditions: HEK293 cells stably expressing GPR40; table does not say human or rat
T2 construct: expressed in transfected cells
Protocol: Compounds were tested in a calcium flux assay using transfected HEK293 cells stably expressing either human GPR40 or rat GPR40. Human GPR40 expressing cells were cultured in DMEM−High Glucose media supplemented with 10% fetal bovine serum, 1×L-Glutamine, 1×Penicillin/Streptomycin and 500 μg/mL G418. Rat GPR40 expressing cells were cultured in DMEM−High Glucose media supplemented with 10% fetal bovine serum and 1 μg/mL puromycin. Cells were plated into poly-D-lysine coated 384-well plates and cultured overnight in a 37° C. humidified tissue culture incubator under 5% CO2/[…] atmosphere.
On the day of the experiment, the culture media was replaced with assay buffer (HBSS, 20 mM HEPES, 0.1% BSA) and the cells incubated at 37° C. for 1 h. Calcium-sensitive fluorescent dye (Fluo 8 No-Wash Calcium Dye, ABD Bioquest) was then added and the cells incubated for another 30 min at 37° C. followed by 15 min at room temperature while protected from the light. The cell plate and a plate of diluted compounds of Formula (I) were loaded into a fluorescent plate reader that added compounds onto the cells while measuring the fluorescence intensity of each well. The plate reader recorded fluorescence intensity at 1 second intervals for 8 min and provided the data for analysis in an Excel format. EC50 values were calculated using Prism (GraphPad) software.

T2 sequence (O14842 whole entry): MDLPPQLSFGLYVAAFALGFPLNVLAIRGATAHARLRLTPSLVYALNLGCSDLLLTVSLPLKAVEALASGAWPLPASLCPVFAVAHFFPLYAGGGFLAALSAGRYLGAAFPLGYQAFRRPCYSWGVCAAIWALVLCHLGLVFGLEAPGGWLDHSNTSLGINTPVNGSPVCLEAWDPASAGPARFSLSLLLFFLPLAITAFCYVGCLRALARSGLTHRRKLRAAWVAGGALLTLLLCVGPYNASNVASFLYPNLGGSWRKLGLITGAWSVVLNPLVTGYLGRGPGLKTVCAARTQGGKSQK

EC50 (Human GPR120 short form) [nM] | EC50 (human GPR40) [nM] | Compound
> 5000 | > 5000 | CCC1CCC(COc2ccc(CCC(=O)O)c(C)c2C)=C1c1ccc(Cl)cc1 (stereo not shown) [Compound 6, 3-[4-[[2-(4-chlorophenyl)-3-ethyl-cyclopenten-1-yl]methoxy]-2,3-dimethyl-phenyl]Propanoic Acid]
> 5000 | > 5000 | Cc1c(CCC(=O)O)ccc(OCC2=C(c3ccc(Cl)cc3)C(C(C)C)CC2)c1C (stereo not shown) [Compound 46, 3-[4-[[2-(4-chlorophenyl)-3-isopropyl-cyclopenten-1-yl]methoxy]-2,3-dimethyl-phenyl]Propanoic Acid]
1410 | – | O=C(O)CCc1ccc(OCC2=C(c3ccc(Cl)cc3)CCC2)cc1C(F)(F)C(F)(F)F [Compound 89, 3-[4-[[2-(4-chlorophenyl)cyclopenten-1-yl]methoxy]-2-(1,1,2,2,2-pentafluoroethyl)phenyl]Propanoic Acid]
> 5000 | > 5000 | O=C(O)CCc1cc(F)c(OCC2=C(c3ccc(Cl)cc3)CCC2)cc1C(F)(F)F [Compound 91, 3-[4-[[2-(4-chlorophenyl)cyclopenten-1-yl]methoxy]-5-fluoro-2-(trifluoromethyl)phenyl]Propanoic Acid]
2030 | > 5000 | Cc1cc(CCC(=O)O)c(C(F)(F)F)cc1OCC1=C(c2ccc(Cl)cc2)CCC1 [Compound 98, 3-[4-[[2-(4-chlorophenyl)cyclopenten-1-yl]methoxy]-5-methyl-2-(trifluoromethyl)phenyl]Propanoic Acid]
1230 | > 5000 | O=C(O)CCc1cc(Br)c(OCC2=C(c3ccc(Cl)cc3)CCC2)c(Br)c1C(F)(F)F [Compound 101, 3-[3,5-dibromo-4-[[2-(4-chlorophenyl)cyclopenten-1-yl]methoxy]-2-(trifluoromethyl)phenyl]Propanoic Acid]
> 5000 | > 5000 | O=C(O)CCc1ccc(OCC2=C(c3ccc(F)c(F)c3)CCC2)cc1 [Compound 103]
> 5000 | > 5000 | O=C(O)CCc1ccc(OCC2=C(c3ccc(Cl)cc3)CCC2)cc1 [Compound 107]
– | > 5000 | CCc1cc(CCC(=O)O)c(C(F)(F)F)cc1OCC1=C(c2ccc(Cl)cc2)CCC1 [Compound 142, 3-[4-[[2-(4-chlorophenyl)cyclopenten-1-yl]methoxy]-5-ethyl-2-(trifluoromethyl)phenyl]Propanoic Acid]
– | > 5000 | CC(Cc1cc(F)c(OCC2=C(c3ccc(Cl)cc3)CCC2)c(F)c1)C(=O)O (stereo not shown) [Compound 144, 3-[4-[[2-(4-chlorophenyl)cyclopenten-1-yl]methoxy]-3,5-difluoro-phenyl]-2-methyl-Propanoic Acid]
2000 | > 5000 | Cc1c(CCC(=O)O)ccc(OCC2=C(c3ccc(Cl)cc3)CCC2=O)c1C [Compound 145, 3-[4-[[2-(4-chlorophenyl)-5-oxo-cyclopenten-1-yl]methoxy]-2,3-dimethyl-phenyl]Propanoic Acid]
> 5000 | – | CC(C)(C)c1cc(OCC2=C(c3ccc(Cl)cc3)CCC2)ccc1CCC(=O)O [Compound 168, 3-[2-tert-butyl-4-[[2-(4-chlorophenyl)cyclopenten-1-yl]methoxy]phenyl]Propanoic Acid]
> 5000 | – | CS(=O)(=O)CCCCc1cc(CCC(=O)O)ccc1OCC1=C(c2ccc(Cl)cc2)CCC1 [Compound 181, 3-[4-[[2-(4-chlorophenyl)cyclopenten-1-yl]methoxy]-3-(4-methylsulfonylbutyl)phenyl]Propanoic Acid]
1290 | 2140 | CSCCCCc1cc(CCC(=O)O)ccc1OCC1=C(c2ccc(Cl)cc2)CCC1 [Compound 198, 3-[4-[[2-(4-chlorophenyl)cyclopenten-1-yl]methoxy]-3-(4-methylsulfanylbutyl)phenyl]Propanoic Acid]
465 | > 5000 | O=C(O)CCc1cc(Cl)c(OCC2=C(c3ccc(F)cc3)CC(F)(F)C2)c(Cl)c1 [Compound 205, 3-[3,5-dichloro-4-[[4,4-difluoro-2-(4-fluorophenyl)cyclopenten-1-yl]methoxy]phenyl]Propanoic Acid]
2100 | 1200 | N#Cc1cc(OCC2=C(c3ccc(F)cc3)CC(F)(F)C2)ccc1CCC(=O)O [Compound 207, 3-[2-cyano-4-[[4,4-difluoro-2-(4-fluorophenyl)cyclopenten-1-yl]methoxy]phenyl]Propanoic Acid]
185 | > 5000 | Cc1cc(CCC(=O)O)ccc1OCC1=C(c2ccco2)CCC1 [Compound 208, 3-[4-[[2-(2-furyl)cyclopenten-1-yl]methoxy]-3-methyl-phenyl]Propanoic Acid]
265 | – | O=C(O)CCc1ccc(OCC2=C(c3ccc(Cl)cc3)CC(F)C2)cc1Cl (stereo not shown) [Compound 252, 3-[2-chloro-4-[[2-(4-chlorophenyl)-4-fluoro-cyclopenten-1-yl]methoxy]phenyl]Propanoic Acid]
378 | – | Cc1cc(OCC2=C(c3cccc(F)c3)CCC2)c(F)cc1CCC(=O)O [Compound 305, 3-[5-fluoro-4-[[2-(3-fluorophenyl)cyclopenten-1-yl]methoxy]-2-methyl-phenyl]Propanoic Acid]
957 | – | Cc1cccc(C2=C(COc3cc(C)c(CCC(=O)O)cc3F)CCC2)c1 [Compound 318, 3-[5-fluoro-2-methyl-4-[[2-(m-tolyl)cyclopenten-1-yl]methoxy]phenyl]Propanoic Acid]
2580 | – | N#Cc1cc(OCC2=C(C3CCCC3)CCC2)ccc1CCC(=O)O [Compound 414, 3-[2-cyano-4-[(2-cyclopentylcyclopenten-1-yl)methoxy]phenyl]Propanoic Acid]
1190 | – | O=C(O)CCc1ccc(OCC2=C(CC3CCCC3)CCC2)cc1C(F)(F)F [Compound 420, 3-[4-[[2-(cyclopentylmethyl)cyclopenten-1-yl]methoxy]-2-(trifluoromethyl)phenyl]Propanoic Acid]
231 | – | Cc1c(CCC(=O)O)ccc(OCC2=C(CC3CCCC3)CCC2)c1C [Compound 427, 3-[4-[[2-(cyclopentylmethyl)cyclopenten-1-yl]methoxy]-2,3-dimethyl-phenyl]Propanoic Acid]
1570 | – | Cc1c(CCC(=O)O)cc(I)c(OCC2=C(c3ccc(I)cc3)CCCC2)c1C [Compound 524, 3-[5-iodo-4-[[2-(4-iodophenyl)cyclohexen-1-yl]methoxy]-2,3-dimethyl-phenyl]Propanoic Acid]
1070 | – | O=C(O)CCc1cc(F)c(OCC2=C(c3ccc(Cl)c(F)c3)CCC(F)(F)C2)c(F)c1 [Compound 528, 3-[4-[[2-(4-chloro-3-fluoro-phenyl)-5,5-difluoro-cyclohexen-1-yl]methoxy]-3,5-difluoro-phenyl]Propanoic Acid]
1280 | – | O=C(O)CCc1cc(F)c(OCC2=C(c3cncs3)CCC(F)(F)C2)c(F)c1 [Compound 549, 3-[4-[(5,5-difluoro-2-thiazol-5-yl-cyclohexen-1-yl)methoxy]-3,5-difluoro-phenyl]Propanoic Acid]
> 5000 | – | CS(=O)(=O)CCCCc1cc(CCC(=O)O)ccc1OCC1=C(c2ccc(Cl)cc2)CCC(F)(F)C1 [Compound 551, 3-[4-[[2-(4-chlorophenyl)-5,5-difluoro-cyclohexen-1-yl]methoxy]-3-(4-methylsulfonylbutyl)phenyl]Propanoic Acid]
3890 | – | CSCCCCc1cc(CCC(=O)O)ccc1OCC1=C(c2ccc(Cl)cc2)CCC(F)(F)C1 [Compound 565, 3-[4-[[2-(4-chlorophenyl)-5,5-difluoro-cyclohexen-1-yl]methoxy]-3-(4-methylsulfanylbutyl)phenyl]Propanoic Acid]
